Drawing on ChEMBL document CHEMBL5291721, “A preclinical secondary pharmacology resource illuminates target-adverse drug reaction associations of marketed drugs” (Nat Commun, 2023), this text covers AC50 for 26 compounds.

Assay [1] concerns the target T1, Cholecystokinin receptor type A (Homo sapiens, UniProt P32238).
T1 sequence (P32238 whole entry): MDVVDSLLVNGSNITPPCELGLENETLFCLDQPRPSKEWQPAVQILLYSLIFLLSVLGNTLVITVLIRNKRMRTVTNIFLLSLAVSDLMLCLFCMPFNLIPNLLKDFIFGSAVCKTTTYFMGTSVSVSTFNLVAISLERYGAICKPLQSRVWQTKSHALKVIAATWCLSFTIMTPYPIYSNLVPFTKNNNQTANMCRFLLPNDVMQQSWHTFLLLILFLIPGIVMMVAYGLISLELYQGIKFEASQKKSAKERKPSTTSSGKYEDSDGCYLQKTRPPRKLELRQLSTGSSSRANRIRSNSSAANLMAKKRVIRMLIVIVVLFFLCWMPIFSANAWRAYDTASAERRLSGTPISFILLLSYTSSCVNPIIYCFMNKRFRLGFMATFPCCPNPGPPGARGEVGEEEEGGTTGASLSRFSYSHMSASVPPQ

In assay [2] the target is Voltage-gated inwardly rectifying potassium channel KCNH2 (Homo sapiens, UniProt Q12809). It is filed as functional.
The target in assay [3] is Vasopressin V2 receptor (Homo sapiens, UniProt P30518).
Assay [4] addresses Beta-1 adrenergic receptor (Homo sapiens, UniProt P08588). Format: functional.
For assay [5], the target named is Cannabinoid receptor 1 (Homo sapiens, UniProt P21554). Format: functional, cell-based.
Note: assay procedure not described here.

Chain of Vasopressin V2 receptor (P30518 whole entry): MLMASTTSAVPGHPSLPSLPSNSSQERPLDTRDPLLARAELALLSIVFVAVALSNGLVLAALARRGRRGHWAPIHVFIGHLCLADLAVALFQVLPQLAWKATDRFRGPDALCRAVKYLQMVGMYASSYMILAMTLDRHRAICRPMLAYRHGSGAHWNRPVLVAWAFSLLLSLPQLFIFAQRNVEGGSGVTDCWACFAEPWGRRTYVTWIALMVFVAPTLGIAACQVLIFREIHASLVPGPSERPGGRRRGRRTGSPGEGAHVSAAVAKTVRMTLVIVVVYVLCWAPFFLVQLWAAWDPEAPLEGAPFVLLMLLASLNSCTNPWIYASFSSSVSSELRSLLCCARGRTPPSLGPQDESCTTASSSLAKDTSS
Chain of Voltage-gated inwardly rectifying potassium channel KCNH2 (Q12809 whole entry): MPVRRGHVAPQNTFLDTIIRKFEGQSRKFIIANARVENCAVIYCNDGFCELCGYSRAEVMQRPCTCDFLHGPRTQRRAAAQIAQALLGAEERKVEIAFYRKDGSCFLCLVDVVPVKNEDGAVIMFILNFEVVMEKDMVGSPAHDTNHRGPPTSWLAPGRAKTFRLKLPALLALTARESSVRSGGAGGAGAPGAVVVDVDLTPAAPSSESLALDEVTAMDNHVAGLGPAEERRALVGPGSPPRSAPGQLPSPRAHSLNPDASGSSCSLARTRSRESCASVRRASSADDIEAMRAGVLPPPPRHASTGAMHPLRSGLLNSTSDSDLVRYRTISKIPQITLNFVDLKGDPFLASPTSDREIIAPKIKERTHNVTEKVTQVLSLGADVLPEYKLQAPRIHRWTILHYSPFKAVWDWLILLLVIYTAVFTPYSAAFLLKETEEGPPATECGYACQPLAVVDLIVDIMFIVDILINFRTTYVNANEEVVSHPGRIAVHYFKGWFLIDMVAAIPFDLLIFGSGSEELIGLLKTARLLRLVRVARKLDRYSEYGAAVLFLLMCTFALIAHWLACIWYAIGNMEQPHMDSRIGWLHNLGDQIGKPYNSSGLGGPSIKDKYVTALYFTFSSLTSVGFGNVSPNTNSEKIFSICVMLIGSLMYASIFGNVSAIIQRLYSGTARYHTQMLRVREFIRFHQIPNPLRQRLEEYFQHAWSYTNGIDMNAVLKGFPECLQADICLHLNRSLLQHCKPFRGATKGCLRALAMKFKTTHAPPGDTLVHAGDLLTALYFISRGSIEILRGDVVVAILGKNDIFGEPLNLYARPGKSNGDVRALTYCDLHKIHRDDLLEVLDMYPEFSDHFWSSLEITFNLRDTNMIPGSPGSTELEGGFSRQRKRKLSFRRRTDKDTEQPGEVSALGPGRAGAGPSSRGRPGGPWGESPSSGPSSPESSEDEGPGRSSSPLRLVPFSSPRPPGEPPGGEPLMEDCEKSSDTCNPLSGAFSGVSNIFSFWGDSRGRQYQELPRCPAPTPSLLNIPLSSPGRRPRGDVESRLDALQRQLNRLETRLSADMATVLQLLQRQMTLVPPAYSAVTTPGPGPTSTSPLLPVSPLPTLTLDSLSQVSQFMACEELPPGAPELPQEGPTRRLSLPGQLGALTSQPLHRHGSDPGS
Chain of Beta-1 adrenergic receptor (P08588 whole entry): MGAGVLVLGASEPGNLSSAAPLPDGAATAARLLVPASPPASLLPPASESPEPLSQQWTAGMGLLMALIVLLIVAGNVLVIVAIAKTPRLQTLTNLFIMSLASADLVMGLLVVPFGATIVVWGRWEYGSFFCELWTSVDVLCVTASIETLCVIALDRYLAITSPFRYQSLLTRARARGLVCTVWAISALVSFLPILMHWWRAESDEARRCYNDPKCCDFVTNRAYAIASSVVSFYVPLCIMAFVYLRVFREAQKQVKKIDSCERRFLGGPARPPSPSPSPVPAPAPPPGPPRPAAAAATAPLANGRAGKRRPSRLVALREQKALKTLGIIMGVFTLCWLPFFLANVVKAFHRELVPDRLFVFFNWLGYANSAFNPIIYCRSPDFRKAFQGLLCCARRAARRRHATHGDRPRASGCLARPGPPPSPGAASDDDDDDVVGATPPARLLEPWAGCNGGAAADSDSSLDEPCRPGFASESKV
Chain of Cannabinoid receptor 1 (P21554 whole entry): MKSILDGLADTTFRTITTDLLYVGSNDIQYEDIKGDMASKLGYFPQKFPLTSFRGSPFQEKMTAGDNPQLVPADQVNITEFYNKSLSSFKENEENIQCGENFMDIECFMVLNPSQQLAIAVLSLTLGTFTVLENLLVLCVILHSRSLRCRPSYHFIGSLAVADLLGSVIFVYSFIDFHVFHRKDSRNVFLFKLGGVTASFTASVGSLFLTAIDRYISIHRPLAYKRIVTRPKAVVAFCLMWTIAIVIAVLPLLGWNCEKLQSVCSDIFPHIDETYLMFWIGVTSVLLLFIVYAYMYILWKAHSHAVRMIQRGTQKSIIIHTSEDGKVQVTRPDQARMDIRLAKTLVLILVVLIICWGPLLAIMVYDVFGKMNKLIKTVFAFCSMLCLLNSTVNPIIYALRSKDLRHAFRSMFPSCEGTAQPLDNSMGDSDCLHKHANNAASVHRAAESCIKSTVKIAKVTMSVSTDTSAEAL

With `CCOc1nc2cccc(C(=O)O)c2n1Cc1ccc(-c2ccccc2-c2nnn[nH]2)cc1`, the concentration at half-maximal activity (AC50) in assay [1], in assay [2], in assay [3], in assay [4] and in assay [5] was above 30 µM in each case.
As for `CCOc1cc([C@@H](CS(C)(=O)=O)N2C(=O)c3cccc(NC(C)=O)c3C2=O)ccc1OC`, the concentration at half-maximal activity (AC50) in assay [1], in assay [4] and in assay [5] was above 30 µM in each case.
Turning to `CC(=O)Nc1ccc(CC(=O)O)cc1` [ACTARIT], the AC50 in assay [1], in assay [2], in assay [3], in assay [4] and in assay [5] was above 30 µM throughout.
As to `CC(C(=O)O)c1ccc2oc(-c3ccc(Cl)cc3)nc2c1` (configuration not stated) [BENOXAPROFEN], the AC50 in assay [1], in assay [2], in assay [3], in assay [4] and in assay [5] was above 30 µM throughout.
In the case of `CC1(C)S[C@@H]2[C@H](NC(=O)C(C(=O)O)c3ccccc3)C(=O)N2[C@H]1C(=O)O` (some centres not stated) [CARBENICILLIN], the AC50 in assay [1], in assay [2], in assay [3], in assay [4] and in assay [5] was above 30 µM in each case.
In the case of `Cc1nnc(SCC2=C(C(=O)O)N3C(=O)[C@@H](NC(=O)Cn4cnnn4)[C@H]3SC2)s1` [CEFAZOLIN], the half-maximal activity concentration (AC50) in assay [1] was above 300 µM; in assay [2], above 300 µM; in assay [3] it was above 30 µM; in assay [4], above 300 µM; in assay [5], above 300 µM.
`CC=CC1=C(C(=O)O)N2C(=O)[C@@H](NC(=O)[C@H](N)c3ccc(O)cc3)[C@H]2SC1` [CEFPROZIL]: the AC50 in assay [1], in assay [2], in assay [3] and in assay [4] was above 30 µM throughout.
`CC(C)(O/N=C(\C(=O)N[C@@H]1C(=O)N2C(C(=O)[O-])=C(C[n+]3ccccc3)CS[C@H]12)c1csc(N)n1)C(=O)O` [CEFTAZIDIME]: the AC50 is above 300 µM in assay [1]; above 300 µM in assay [2]; above 30 µM in assay [3]; above 300 µM in assay [4]; above 300 µM in assay [5].
Consider `CCCNC(=O)NS(=O)(=O)c1ccc(Cl)cc1` [CHLORPROPAMIDE], for which the AC50 was above 30 µM in assay [1]; above 30 µM in assay [2]; above 30 µM in assay [3]; above 10 µM in assay [4]; above 30 µM in assay [5].
Regarding `Clc1ccc(Cn2c(CN3CCCC3)nc3ccccc32)cc1` [CLEMIZOLE], the AC50 is above 30 µM in assay [1], 0.86 µM in assay [2], above 30 µM in assay [4] and above 30 µM in assay [5].
`CCC(=O)O[C@]1(C(=O)CCl)[C@@H](C)C[C@H]2[C@@H]3CCC4=CC(=O)C=C[C@]4(C)[C@@]3(F)[C@@H](O)C[C@@]21C` [CLOBETASOL PROPIONATE]: the concentration at half-maximal activity (AC50) in assay [1], in assay [2], in assay [3], in assay [4] and in assay [5] was above 30 µM each time.
On to `Cc1nc(Nc2ncc(C(=O)Nc3c(C)cccc3Cl)s2)cc(N2CCN(CCO)CC2)n1` [DASATINIB], for which the AC50 was 10.2 µM in assay [1], above 30 µM in assay [3], above 30 µM in assay [4] and above 30 µM in assay [5].
For `CC(C)Cc1ccc([C@H](C)C(=O)O)cc1` [DEXIBUPROFEN], the AC50 in assay [1], in assay [4] and in assay [5] was above 30 µM throughout.
As for `CNC[C@H](O)c1ccc(O)c(O)c1` [EPINEPHRINE], the half-maximal activity concentration (AC50) in assay [1], in assay [2] and in assay [5] was above 30 µM each time.
On to `Cc1onc(-c2c(F)cccc2Cl)c1C(=O)N[C@@H]1C(=O)N2[C@@H]1SC(C)(C)[C@@H]2C(=O)O` [FLOXACILLIN], for which the half-maximal activity concentration (AC50) in assay [1], in assay [2], in assay [4] and in assay [5] was above 30 µM in each case.
Regarding `CCCCCCCN(CC)CCCC(O)c1ccc(NS(C)(=O)=O)cc1` (configuration not stated) [IBUTILIDE], the concentration at half-maximal activity (AC50) in assay [1], in assay [3] and in assay [4] was above 30 µM in each case.
`CC[C@H](C)C(=O)O[C@H]1C[C@@H](C)C=C2C=C[C@H](C)[C@H](CC[C@@H]3C[C@@H](O)CC(=O)O3)[C@H]21` [LOVASTATIN]: the AC50 in assay [1] was above 30 µM; in assay [3] it was above 30 µM; in assay [4], above 10 µM; in assay [5], above 30 µM.
On to `CC[C@@H](CO)NC(=O)[C@@H]1C=C2c3cccc4c3c(cn4C)C[C@H]2N(C)C1` [METHYSERGIDE], for which the half-maximal activity concentration (AC50) in assay [1], in assay [2], in assay [3] and in assay [5] was above 30 µM each time.
Take `CNC(=C[N+](=O)[O-])NCCSCc1csc(CN(C)C)n1` [NIZATIDINE]: the AC50 in assay [1] was above 10 µM; in assay [2] it was above 30 µM; in assay [3], above 10 µM; in assay [4], above 10 µM.
Turning to `CN1Cc2c(N)cccc2C(c2ccccc2)C1` (configuration not stated) [NOMIFENSINE], the AC50 is above 30 µM in assay [1], 4.8 µM in assay [2], above 30 µM in assay [3] and above 30 µM in assay [5].
As for `CCCc1cc(=O)[nH]c(=S)[nH]1` [PROPYLTHIOURACIL], the half-maximal activity concentration (AC50) is above 10 µM in assay [1], above 30 µM in assay [2], above 10 µM in assay [3] and above 10 µM in assay [4].
`Cn1cc(C(=O)[C@@H]2CCc3nc[nH]c3C2)c2ccccc21` [RAMOSETRON]: the half-maximal activity concentration (AC50) in assay [1] is above 30 µM; in assay [2], 4.7 µM; in assay [3], above 30 µM; in assay [4], above 30 µM; in assay [5], above 30 µM.
In the case of `CN(CCOc1ccc(CC2SC(=O)NC2=O)cc1)c1ccccn1` (configuration not stated) [ROSIGLITAZONE], the AC50 was above 30 µM in assay [1]; 13 µM in assay [2]; above 30 µM in assay [3]; above 30 µM in assay [4]; above 30 µM in assay [5].
Turning to `S=P(N1CC1)(N1CC1)N1CC1` [THIOTEPA], the AC50 in assay [1] is above 30 µM; in assay [2], 9.6 µM; in assay [4], above 30 µM; in assay [5] it was above 30 µM.
As for `CC(C)[C@H](N)C(=O)OCCOCn1cnc2c(=O)[nH]c(N)nc21` [VALACYCLOVIR], the AC50 is above 30 µM in assay [1]; above 30 µM in assay [2]; above 30 µM in assay [3]; above 10 µM in assay [4]; above 30 µM in assay [5].
For the compound `COc1cc(C(=O)NS(=O)(=O)c2ccccc2C)ccc1Cc1cn(C)c2ccc(NC(=O)OC3CCCC3)cc12` [ZAFIRLUKAST], the concentration at half-maximal activity (AC50) in assay [1] was above 10 µM; in assay [2] it was above 30 µM; in assay [3], above 10 µM; in assay [4], above 10 µM; in assay [5], above 30 µM.

A word on the AC50: it is the midpoint of the concentration-response curve, whichever way the signal moves. A lower AC50 goes with greater potency.
